# Experimental data reported in paper PMC6792352, “Limited Chemical Structural Diversity Found to Modulate Thyroid Hormone Receptor in the Tox21 Chemical Library” (Environmental Health Perspectives, 2019).
# Structures can show the parent of a compound that is named as a salt.
# Test: in vitro
# Settings: rat, gh3-tre-luc cells, AC50 (uM) modified / 1000
row,SMILES,CC50 at 24 h [µM]
1,COc1ccc(C[C@@H]2c3cc(OC)c(OC)cc3CC[N@+]2(C)CCC(=O)OCCCCCOC(=O)CC[N@@+]2(C)CCc3cc(OC)c(OC)cc3[C@H]2Cc2ccc(OC)c(OC)c2)cc1OC [Atracurium besylate],> 20
2,Cc1occc(=O)c1OC(=O)C(C)C [Maltol isobutyrate],> 90
3,C=COC(C)=O [Vinyl acetate],> 90
4,OC(CCN1CCCCC1)(c1ccccc1)C1CCCCC1 (stereo not drawn) [Trihexyphenidyl hydrochloride],> 50
5,COC(c1ccccc1)(c1ccccc1)[C@H](Oc1nc(C)cc(C)n1)C(=O)O [Ambrisentan],> 50
6,CCCCCCCCCCCCCCCC[N+](C)(C)CCN(Cc1ccc(OC)cc1)c1ncccn1 [Thonzonium bromide],14.6
7,Cc1ccsc1/C=C/C1=NCCCN1C [Morantel tartrate],> 20
8,CCCCCCCCOc1ccc(C(=O)O)cc1 [4-Octyloxybenzoic acid],> 90
9,CCC1(C)NC(=O)NC1=O (stereo not drawn) [5-Ethyl-5-methylhydantoin],> 90
10,"c1ccc2sc(SSc3nc4ccccc4s3)nc2c1 [2,2'-Dithiobisbenzothiazole]",> 50
11,Cc1ccc(N)cc1S(=O)(=O)O [5-Amino-2-methylbenzenesulfonic acid],> 90
12,O=C1NS(=O)(=O)c2ccccc21 [Sodium saccharin],> 90
13,COc1cc2nc(N3CCN(C(=O)C4CCCO4)CC3)nc(N)c2cc1OC (stereo not drawn) [Terazosin hydrochloride],> 50
14,CC(C)OC(=O)Nc1ccc2[nH]c(-c3cscn3)nc2c1 [Cambendazole],4.4
15,Nc1ccn([C@@H]2CO[C@H](CO)O2)c(=O)n1 [Troxacitabine],> 50
16,O=C(O)CCC(=O)O [Butanedioic acid],> 90
17,"Nn1cnnc1 [4-Amino-1,2,4-triazole]",> 90
18,CCOc1cc(N)c(Cl)cc1C(=O)NCC1CN(Cc2ccc(F)cc2)CCO1 (stereo not drawn) [Mosapride citrate],> 50
19,"Clc1cc(Cl)c(Cl)cc1Cl [1,2,4,5-Tetrachlorobenzene]",> 90
20,CCN(CC)C(=O)/C(C#N)=C/c1cc(O)c(O)c([N+](=O)[O-])c1 [Entacapone],> 50
21,Cc1ccco1 [2-Methylfuran],> 90
22,O=C1c2ccccc2CN2C(=O)c3ccccc3CN12 [Diftalone],> 50
23,C1CN(P2(N3CC3)=NP(N3CC3)(N3CC3)=NP(N3CC3)(N3CC3)=N2)CCO1 (stereo not drawn) [Fotretamine],> 50
24,O=Cc1c2ccccc2c(Cl)c2ccccc12 [10-Chloro-9-anthraldehyde],> 50

row,SMILES,CC50 at 24 h [µM]
1,CC(=O)OCC(=O)[C@@]12OC(C)(C)O[C@@H]1C[C@H]1[C@@H]3C[C@H](F)C4=CC(=O)C=C[C@]4(C)[C@@]3(F)[C@@H](O)C[C@@]12C [Fluocinonide],> 20
2,"Oc1c(Cl)cccc1Cl [2,6-Dichlorophenol]",> 90
3,CC(C)(C)c1ccccc1 [tert-Butylbenzene],> 90
4,CCO[Si](CCCS)(OCC)OCC [3-(Triethoxysilyl)propane-1-thiol],> 90
5,CCCCCCCCCCCCCCOS(=O)(=O)O [Sodium myristyl sulfate],32
6,O=C(O[C@H]1CN2CCC1CC2)N1CCc2ccccc2[C@@H]1c1ccccc1 [Solifenacin hydrochloride],19.6
7,CCCCCCC=O [Heptanal],> 90
8,NC(CS)C(=O)O (racemic) [DL-Cysteine],> 50
9,"BrC(Br)C(Br)Br [1,1,2,2-Tetrabromoethane]",> 90
10,O=S(=O)(O)CCN1CCN(CCO)CC1 [Sodium 2-[4-(2-hydroxyethyl)piperazin-1-yl]ethanesulfonate],> 90
11,CN1C(C(=O)Nc2ccccn2)=C(O)c2sccc2S1(=O)=O [Tenoxicam],> 20
12,Cc1cccc(Br)c1 [3-Bromotoluene],> 90
13,"CC(CC(=O)O)CC(C)(C)C (stereo not drawn) [3,5,5-Trimethylhexanoic acid]",> 90
14,CC(=O)CCC=C(C)C [6-Methyl-5-hepten-2-one],> 90
15,CNC[C@@H]1CC[C@@H](N)[C@@H](O[C@H]2[C@H](O)[C@@H](O[C@H]3OC[C@](C)(O)[C@H](NC)[C@H]3O)[C@H](N)C[C@@H]2N)O1 [Micronomicin sulfate],> 50
16,C[C@]12C=CC(=O)C=C1CC[C@@H]1[C@@H]2[C@@H](O)C[C@@]2(C)[C@H]1CC[C@]2(O)C(=O)COC(=O)CCC(=O)O [Prednisolone 21-hemisuccinate],> 50
17,CC(=O)Nc1ccc(OC(=O)c2ccccc2OC(C)=O)cc1 [Benorylate],> 50
18,C=C1/C(=C\C=C2/CCC[C@]3(C)[C@@H]([C@H](C)CCCC(C)(C)O)CC[C@@H]23)C[C@@H](O)C[C@@H]1O [Calcitriol],20.1
19,"O=C(O)c1cccc(Cl)c1Cl [2,3-Dichlorobenzoic acid]",> 90
20,O=C(O)CN(CCOCCOCCN(CC(=O)O)CC(=O)O)CC(=O)O [Egtazic Acid],> 50
21,CC[C@H]1OC(=O)C[C@@H](O)[C@H](C)[C@@H](O[C@@H]2O[C@H](C)[C@@H](O)[C@H](N(C)C)[C@H]2O)[C@@H](CCN2C[C@H](C)C[C@H](C)C2)C[C@@H](C)C(=O)/C=C/C(C)=C/[C@@H]1CO[C@@H]1O[C@H](C)[C@@H](O)[C@@H](OC)[C@H]1OC [Tilmicosin],> 50
22,CCCCCCCCCCCCCCCCI [1-iodohexadecane],> 20
23,O=P(O)(O)OC(Cn1cncn1)(Cn1cncn1)c1ccc(F)cc1F [Fosfluconazole],> 50
24,"CCOC(=O)C(C#N)=C(c1ccccc1)c1ccccc1 [Ethyl 2-cyano-3,3-diphenylacrylate]",> 90

row,SMILES,CC50 at 24 h [µM]
1,COCCOCCOCCO [2-[2-(2-Methoxyethoxy)ethoxy]ethanol],> 90
2,c1c[nH]cn1 [Imidazole],> 100
3,"O=C(O)c1cccc(C(=O)O)c1C(=O)O [1,2,3-Benzenetricarboxylic acid]",> 90
4,"CCCCC(CC)CCC(CC(C)C)OS(=O)(=O)O (stereo not drawn) [7-Ethyl-2-methyl-4-undecanolsulfate, sodium salt]",> 90
5,CCCCCCCCCCCCCCCC(=O)OC[C@@H](COP(=O)([O-])OCC[N+](C)(C)C)OC(=O)CCCCCCCCCCCCCCC,> 50
6,COc1ccc(/C=C/C(=O)Nc2ccccc2C(=O)O)cc1OC [Tranilast],> 50
7,O=C1/C(=C/c2cccs2)CCC/C1=C\c1cccs1 [Tenylidone],> 50
8,"NCCOCCOCCN [2,2'-[Ethane-1,2-diylbis(oxy)]diethanamine]",> 90
9,CCCCCCOC(=O)c1ccccc1C(=O)OCCCCCC [Dihexyl phthalate],> 90
10,COc1ccc(CCC(C)=O)cc1 [4-(4-Methoxyphenyl)-2-butanone],> 90
11,CC[C@H](C)C(=O)O[C@H]1C[C@H](O)C=C2C=C[C@H](C)[C@H](CC[C@@H](O)C[C@@H](O)CC(=O)O)[C@H]21 [Pravastatin sodium],> 90
12,Cn1cnc2c1c(=O)[nH]c(=O)n2C [Theobromine],> 40
13,C[C@H]1O[C@H](O[C@H]2[C@H](O)[C@@H](O)[C@@H](O[C@@H]([C@H](O)[C@@H](O)C=O)[C@H](O)CO)O[C@@H]2CO)[C@H](O)[C@@H](O)[C@@H]1N[C@H]1C=C(CO)[C@@H](O)[C@H](O)[C@H]1O [Acarbose],> 50
14,"CC(C)C(=O)OCC(C)(C)C(OC(=O)C(C)C)C(C)C (stereo not drawn) [2,2,4-Trimethyl-1,3-pentanediol diisobutyrate]",> 90
15,Nc1ccccc1Nc1ccccc1 [2-Aminodiphenylamine],14.7
16,"N#Cc1cccc(C#N)c1 [1,3-Benzenedicarbonitrile]",> 90
17,Cc1cc2cc3c(C)cc(=O)oc3c(C)c2o1 [Trioxsalen],> 20
18,CCCCCCCCSCC [Ethyl octyl sulfide],> 90
19,C[N+](C)(CCCCCC[N+](C)(C)C1c2ccccc2-c2ccccc21)C1c2ccccc2-c2ccccc21 [Hexafluorenium dibromide],> 50
20,"CCC(=C(CC)c1ccc(O)cc1)c1ccc(O)cc1 [(Z,E)-Diethylstilbestrol]",12.2
21,C=CC(=O)OCC(C)C [Isobutyl acrylate],> 90
22,C[C@]12CC[C@@H]3c4ccc(O)cc4CC[C@H]3[C@@H]1CC[C@H]2O [17alpha-Estradiol],> 90

# Same assay, conditions: rat, gh3-tre-luc cells, AC50 (uM) modified / 1000, Tox21_110001=Tox21_111475; viability, 1 nM T3 present, 24 h
row,SMILES,CC50 at 24 h [µM]
1,CC(C)C[C@H](CN)CC(=O)O [Pregabalin],> 50

# Same assay, conditions: rat, gh3-tre-luc cells, AC50 (uM) modified / 1000, Tox21_110001=Tox21_112264; viability, 1 nM T3 present, 24 h
row,SMILES,CC50 at 24 h [µM]
1,CC(=O)[C@H]1CC[C@H]2[C@@H]3CC[C@H]4C[C@](C)(O)CC[C@]4(C)[C@H]3CC[C@]12C [Ganaxolone],> 50

# Same assay, conditions: rat, gh3-tre-luc cells, AC50 (uM) modified / 1000, Tox21_110001=Tox21_112882; viability, 1 nM T3 present, 24 h
row,SMILES,CC50 at 24 h [µM]
1,c1ccc(CN2CCNCC2)cc1 [1-Benzylpiperazine difumarate],> 200

# Same assay, conditions: rat, gh3-tre-luc cells, AC50 (uM) modified / 1000, Tox21_110001=Tox21_200074; viability, 1 nM T3 present, 24 h
row,SMILES,CC50 at 24 h [µM]
1,"ClC(Cl)C(Cl)Cl [1,1,2,2-Tetrachloroethane]",> 90

# Same assay, conditions: rat, gh3-tre-luc cells, AC50 (uM) modified / 1000, Tox21_110001=Tox21_200363; viability, 1 nM T3 present, 24 h
row,SMILES,CC50 at 24 h [µM]
1,C=CC(C)=O [Methyl vinyl ketone],> 90

# Same assay, conditions: rat, gh3-tre-luc cells, AC50 (uM) modified / 1000, Tox21_110001=Tox21_202224; viability, 1 nM T3 present, 24 h
row,SMILES,CC50 at 24 h [µM]
1,"Nc1ccc(-c2ccc(N)c(Cl)c2)cc1Cl [3,3'-Dichlorobenzidine]",26.1

# Same assay, conditions: rat, gh3-tre-luc cells, AC50 (uM) modified / 1000, Tox21_110001=Tox21_300806; viability, 1 nM T3 present, 24 h
row,SMILES,CC50 at 24 h [µM]
1,CNC(=O)/C=C(\C)OP(=O)(OC)OC [Monocrotophos],> 90

# Same assay, conditions: rat, gh3-tre-luc cells, AC50 (uM) modified / 1000, Tox21_110001=Tox21_301359; viability, 1 nM T3 present, 24 h
row,SMILES,CC50 at 24 h [µM]
1,CCOC(=O)c1cn2nc(OP(=S)(OCC)OCC)cc2nc1C [Pyrazophos],> 90
